From article PMC6920776, “Exploring Biological Activity of 4-Oxo-4H-furo[2,3-h]chromene Derivatives as Potential Multi-Target-Directed Ligands Inhibiting Cholinesterases, β-Secretase, Cyclooxygenase-2, and Lipoxygenase-5/15” (Biomolecules, 2019) come the findings set out here.

The term IC50 denotes the concentration needed to halve the response being measured.

Where a name gives a salt, the structure may show the parent alone.

The subject of one assay is breast cancer MCF-7 cell line. The assay is described as follows: MTT antigrowth assay, MCF-7. Format: cell-based. As to conditions: Homo sapiens, MCF7, 24 h treatment, preliminary results, read-out: IC50 antigrowth effect, MCF-7. Background: Tetrazolium dyes change colour on reduction, which living cells bring about.
Description: Briefly, the Hek293-T cells and MCF-7 cancer cells were seeded in a 96-well plate at a density of 20 × 10^3 cells per well, and then incubated at 37 °C in 5% CO2 to allow cell attachment. The medium was removed and replaced with fresh medium containing various concentrations of the test sample and doxorubicin hydrochloride (10, 25, 50, 100, and 200 μM) and incubated for 24 h. After treatment for 24 h, 10 μL MTT (5 mg/mL) was added to each well and the plate was further incubated for 4 h. The supernatant was removed, and 100 μL of DMSO was added to each well to dissolve the resulting formazan crystals. The absorbance was read at 570 nm using the Varioskan flash microplate spectrophotometer reader and the cell viability. The percentages of cell viability were used to determine the IC50 values.
As for `COc1cccc2c1C(=O)c1c(O)c3c(c(O)c1C2=O)C[C@@](O)(C(=O)CO)C[C@@H]3O[C@H]1C[C@H](N)[C@H](O)[C@H](C)O1` [doxorubicin hydrochloride, reference compound], the half-maximal inhibitory concentration (IC50) came out at 1.59 ± 0.01 µM.

Tested on in another assay: not listed separately
The assay is described as follows: DPPH radical scavenging assay. As to conditions: 45 min in the dark, triplicate. How it is done: The DPPH radical scavenging activity of compounds 2a–i and 3a–i was evaluated following the literature method by Zhu et al.. The compounds were evaluated against ascorbic acid (Sigma Aldrich, Saint Louis, Missouri, USA) as a positive control. Various concentrations of the test compounds and control (0 µM to 40 µM) in DMSO were mixed with a solution of DPPH (0.20 mM) in methanol. The mixtures were incubated in the dark for 45 min and then the absorbances were recorded at 512 nm using Varioskan flash microplate spectrophotometer reader. All tests and analyses were run in triplicate and averaged. The inhibition was calculated in terms of percentage using the formula below: DPPH radical scavenged (%)=AbC − AbS/AbC×100 where AbC is absorbance of control and AbS the absorbance of the test sample.
For orientation: Loss of DPPH colour is used to gauge radical scavenging.
`O=Cc1coc2c(ccc3oc(C4=CCCCC4)cc32)c1=O` [Compound 2i, 8-(Cyclohex-1-en-1-yl)-4-oxo-4H-furo[2,3-h]chromene-3-carbaldehyde]: it took 15.9 ± 0.02 µM to reach half-maximal inhibition (IC50).

Consider `O=Cc1coc2c(ccc3oc(-c4ccc(Cl)cc4)cc32)c1=O` [Compound 2e, 8-(4-Chlorophenyl)-4-oxo-4H-furo[2,3-h]chromene-3-carbaldehyde], for which the half-maximal inhibitory concentration (IC50) was determined as 19.9 ± 0.01 µM.

With `Cc1ccc(-c2cc3c(ccc4c(=O)c(C=O)coc43)o2)cc1` [Compound 2h, 8-(4-Methyphenyl)-4-oxo-4H-furo[2,3-h]chromene-3-carbaldehyde], the IC50 worked out at 11.6 ± 0.03 µM.

As to `Cc1ccc(-c2cc3c(ccc4c(=O)c(C=NNc5ccc(C(F)(F)F)cc5)coc43)o2)cc1` [Compound 3h], the IC50 turned out to be 16.3 ± 0.03 µM.

`O=C1O[C@H]([C@@H](O)CO)C(O)=C1O` [Ascorbic acid, ascorbic acid, reference compound]: the IC50 was found to be 4.6 ± 0.01 µM.

Molecule `COc1ccc(-c2cc3c(ccc4c(=O)c(C=O)coc43)o2)cc1` [Compound 2f, 8-(4-Methoxyphenyl)-4-oxo-4H-furo[2,3-h]chromene-3-carbaldehyde] had a half-maximal inhibitory concentration (IC50) of 14.3 ± 0.02 µM.

Another assay has as its target T1, human LOX-5 (Homo sapiens, UniProt P09917).
T1 construct: purchased BioVision K980
T1 sequence (P09917 1-674): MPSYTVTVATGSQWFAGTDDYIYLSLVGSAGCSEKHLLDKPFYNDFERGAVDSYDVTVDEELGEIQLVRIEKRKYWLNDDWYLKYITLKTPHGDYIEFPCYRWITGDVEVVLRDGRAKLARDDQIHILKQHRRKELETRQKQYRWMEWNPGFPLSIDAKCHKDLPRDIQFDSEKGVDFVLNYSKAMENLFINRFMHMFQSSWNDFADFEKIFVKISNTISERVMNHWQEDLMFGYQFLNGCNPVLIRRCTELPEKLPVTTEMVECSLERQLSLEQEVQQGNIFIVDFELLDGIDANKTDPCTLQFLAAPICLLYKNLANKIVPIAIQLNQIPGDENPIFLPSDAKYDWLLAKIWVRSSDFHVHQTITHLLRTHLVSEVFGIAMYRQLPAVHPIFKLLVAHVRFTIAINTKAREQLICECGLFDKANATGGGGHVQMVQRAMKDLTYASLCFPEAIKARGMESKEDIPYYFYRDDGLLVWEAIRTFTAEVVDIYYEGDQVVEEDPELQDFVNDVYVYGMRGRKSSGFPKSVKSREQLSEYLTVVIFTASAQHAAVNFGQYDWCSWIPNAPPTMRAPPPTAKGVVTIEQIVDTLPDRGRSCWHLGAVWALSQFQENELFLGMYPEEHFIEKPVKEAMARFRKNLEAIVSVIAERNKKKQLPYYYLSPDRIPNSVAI
Kind of assay: Human LOX-5 inhibitory assay. It is filed as biochemical.
Details: not given
For the molecule `Cc1ccc(-c2cc3c(ccc4c(=O)c(C=O)coc43)o2)cc1` [Compound 2h, 8-(4-Methyphenyl)-4-oxo-4H-furo[2,3-h]chromene-3-carbaldehyde], half-maximal inhibition (IC50) required 28.7 ± 0.03 µM.

For `COc1ccc(-c2cc3c(ccc4c(=O)c(C=O)coc43)o2)cc1` [Compound 2f, 8-(4-Methoxyphenyl)-4-oxo-4H-furo[2,3-h]chromene-3-carbaldehyde], the IC50 came to 17.3 ± 0.01 µM.

The target of another assay is T2, COX-2 (Homo sapiens, UniProt P35354).
T2 construct: purchased Bio Vision K547
T2 sequence (P35354 18-604): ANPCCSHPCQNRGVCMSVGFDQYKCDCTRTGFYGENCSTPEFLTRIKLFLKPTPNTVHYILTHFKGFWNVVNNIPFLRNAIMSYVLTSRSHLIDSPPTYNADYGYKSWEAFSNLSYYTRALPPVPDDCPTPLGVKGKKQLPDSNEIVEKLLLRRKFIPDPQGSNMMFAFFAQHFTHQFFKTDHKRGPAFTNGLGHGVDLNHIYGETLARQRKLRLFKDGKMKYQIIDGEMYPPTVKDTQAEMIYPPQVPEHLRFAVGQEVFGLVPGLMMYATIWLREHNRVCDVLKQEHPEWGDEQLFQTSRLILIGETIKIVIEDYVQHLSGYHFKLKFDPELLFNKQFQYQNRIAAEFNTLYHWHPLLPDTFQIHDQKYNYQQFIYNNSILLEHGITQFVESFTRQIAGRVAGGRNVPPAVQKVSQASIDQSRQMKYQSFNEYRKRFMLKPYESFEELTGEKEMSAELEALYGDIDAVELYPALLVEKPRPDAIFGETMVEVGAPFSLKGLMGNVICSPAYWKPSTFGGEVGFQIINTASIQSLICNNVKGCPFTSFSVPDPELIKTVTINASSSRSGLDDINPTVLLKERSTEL
The assay is described as follows: biochemical. As to conditions: duplicate runs.
Description: The reagents for the COX-2 assay were prepared according to the standard protocol enclosed in the Cyclooxygenase inhibitor screening kit (Item No. K547; Bio Vision, Milpitas Blvd, Milpitas, CA USA). […] The assay mixtures in a 96-well plate were distributed as follows: two wells taken as enzyme control (10µL assay buffer) and two wells as inhibitor control (2 µL of celecoxib and 8 µL of COX assay buffer). Ten microliters of the test compounds concentrations and those of celecoxib were added to the remaining wells with the aid of a multi-channel pipette. Then, 80 µL of the reaction mix (a mixture of 76 µL COX assay buffer, 1 µL of COX probe, 2 µL of diluted COX cofactor and 1 µL of COX-2 enzyme) were added to the reaction mixture. The assay mixtures in the 96-well plate were incubated for 5 min. The reactions were initiated by the addition of 10 µL of diluted arachidonic acid and sodium hydroxide solution (10 µL of arachidonic acid and 90 µL of sodium hydroxide) to each well. The absorbance was measured using a Varioskan flash microplate spectrophotometer, and the IC50 was calculated with the aid of a graph pad prism
With `O=Cc1coc2c(ccc3oc(C4=CCCCC4)cc32)c1=O` [Compound 2i, 8-(Cyclohex-1-en-1-yl)-4-oxo-4H-furo[2,3-h]chromene-3-carbaldehyde], half-maximal inhibition (IC50) required 12.1 ± 0.01 µM.

Turning to `O=Cc1coc2c(ccc3oc(-c4ccc(Cl)cc4)cc32)c1=O` [Compound 2e, 8-(4-Chlorophenyl)-4-oxo-4H-furo[2,3-h]chromene-3-carbaldehyde], the half-inhibitory concentration (IC50) was found to be 18.6 ± 0.01 µM.

For the molecule `Cc1ccc(-c2cc3c(ccc4c(=O)c(C=O)coc43)o2)cc1` [Compound 2h, 8-(4-Methyphenyl)-4-oxo-4H-furo[2,3-h]chromene-3-carbaldehyde], it took 19.8 ± 0.03 µM to reach half-maximal inhibition (IC50).

Regarding `Cc1ccc(-c2cc3c(ccc4c(=O)c(C=NNc5ccc(C(F)(F)F)cc5)coc43)o2)cc1` [Compound 3h], the half-inhibitory concentration (IC50) was found to be 22.4 ± 0.01 µM.

Consider `COc1ccc(-c2cc3c(ccc4c(=O)c(C=O)coc43)o2)cc1` [Compound 2f, 8-(4-Methoxyphenyl)-4-oxo-4H-furo[2,3-h]chromene-3-carbaldehyde], for which the IC50 was determined as 13.7 ± 0.04 µM.

The target of the next assay is T3, soybean lipoxygenases-15 (LOX-15) (Glycine max, UniProt P08170).
T3 construct: purchased Cayman Chemicals 760700
T3 sequence (P08170 1-839): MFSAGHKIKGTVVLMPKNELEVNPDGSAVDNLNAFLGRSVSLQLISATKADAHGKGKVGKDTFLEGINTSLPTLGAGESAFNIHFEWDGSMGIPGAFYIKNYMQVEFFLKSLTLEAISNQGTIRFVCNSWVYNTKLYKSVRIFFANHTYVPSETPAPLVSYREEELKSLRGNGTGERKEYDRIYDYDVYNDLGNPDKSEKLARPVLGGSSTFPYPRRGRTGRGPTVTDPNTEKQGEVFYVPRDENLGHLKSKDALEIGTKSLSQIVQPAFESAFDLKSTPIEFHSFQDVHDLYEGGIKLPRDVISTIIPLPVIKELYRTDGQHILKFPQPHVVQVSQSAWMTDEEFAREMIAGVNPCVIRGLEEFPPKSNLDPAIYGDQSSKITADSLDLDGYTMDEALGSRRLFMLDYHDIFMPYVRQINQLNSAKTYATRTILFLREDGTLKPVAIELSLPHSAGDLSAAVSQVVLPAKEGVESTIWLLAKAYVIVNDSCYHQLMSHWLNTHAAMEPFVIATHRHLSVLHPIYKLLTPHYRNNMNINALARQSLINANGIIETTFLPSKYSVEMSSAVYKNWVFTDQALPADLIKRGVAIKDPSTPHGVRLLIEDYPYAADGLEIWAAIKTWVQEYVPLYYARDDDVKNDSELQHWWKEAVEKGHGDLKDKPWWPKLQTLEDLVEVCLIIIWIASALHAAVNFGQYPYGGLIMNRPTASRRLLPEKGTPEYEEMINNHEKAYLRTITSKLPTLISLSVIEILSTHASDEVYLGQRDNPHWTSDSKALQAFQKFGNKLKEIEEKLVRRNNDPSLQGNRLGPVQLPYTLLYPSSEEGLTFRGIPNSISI
The assay is described as follows: Soybean LOX-15 inhibitory assay. Format: biochemical.
Details: not given
Turning to `O=Cc1coc2c(ccc3oc(C4=CCCCC4)cc32)c1=O` [Compound 2i, 8-(Cyclohex-1-en-1-yl)-4-oxo-4H-furo[2,3-h]chromene-3-carbaldehyde], the IC50 is 21.5 ± 0.02 µM.

Turning to `O=Cc1coc2c(ccc3oc(-c4ccc(Cl)cc4)cc32)c1=O` [Compound 2e, 8-(4-Chlorophenyl)-4-oxo-4H-furo[2,3-h]chromene-3-carbaldehyde], the 50% inhibitory concentration (IC50) worked out at 15.2 ± 0.04 µM.

For the molecule `Cc1ccc(-c2cc3c(ccc4c(=O)c(C=O)coc43)o2)cc1` [Compound 2h, 8-(4-Methyphenyl)-4-oxo-4H-furo[2,3-h]chromene-3-carbaldehyde], the IC50 came to 9.2 ± 0.03 µM.

For the molecule `Cc1ccc(-c2cc3c(ccc4c(=O)c(C=NNc5ccc(C(F)(F)F)cc5)coc43)o2)cc1` [Compound 3h], the IC50 is 18.6 ± 0.03 µM.

The molecule `COc1ccc(-c2cc3c(ccc4c(=O)c(C=O)coc43)o2)cc1` [Compound 2f, 8-(4-Methoxyphenyl)-4-oxo-4H-furo[2,3-h]chromene-3-carbaldehyde] registered an IC50 of 8.2 ± 0.03 µM.

For another assay, the target named is T4, BChE (Homo sapiens, UniProt P06276).
T4 construct: purchased Cloud-Clone Corp., through BIOCOM Africa (Pty) Ltd RPC348Hu0 2_100
T4 sequence (P06276 29-602): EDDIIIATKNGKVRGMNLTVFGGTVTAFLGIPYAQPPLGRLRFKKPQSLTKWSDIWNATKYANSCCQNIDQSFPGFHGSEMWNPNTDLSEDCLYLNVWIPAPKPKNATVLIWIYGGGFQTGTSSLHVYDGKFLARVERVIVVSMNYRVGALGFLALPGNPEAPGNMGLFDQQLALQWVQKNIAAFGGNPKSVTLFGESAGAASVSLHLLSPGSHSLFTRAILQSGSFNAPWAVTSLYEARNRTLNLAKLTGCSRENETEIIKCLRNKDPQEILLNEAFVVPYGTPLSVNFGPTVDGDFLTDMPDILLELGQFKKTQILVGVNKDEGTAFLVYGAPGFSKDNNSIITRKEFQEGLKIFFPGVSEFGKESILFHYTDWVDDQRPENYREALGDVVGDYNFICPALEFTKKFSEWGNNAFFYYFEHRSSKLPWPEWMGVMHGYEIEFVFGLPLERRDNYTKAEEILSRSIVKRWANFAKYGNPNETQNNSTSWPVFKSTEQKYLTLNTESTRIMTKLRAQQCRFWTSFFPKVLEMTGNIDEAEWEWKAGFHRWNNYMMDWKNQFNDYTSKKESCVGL
The assay is described as follows: biochemical. The settings on record: Ellman's method, triplicate. (DTNB colorimetry detects thiols as they appear.)
Description: Their anti-AChE and BChE activities were determined by spectrophotometric Ellman’s method [42]. […] The mixtures were incubated for 15 min at RT. The reaction was initiated by adding 10 µL of a mixture solution of 5 mM 5,50-dithio-bis-nitrobenzoic acid (DTNB) in 50 mM tris buffer (pH 7.7) and 10 µL acetylthiocholine (ASCh) (5 mM) in 50 mM tris buffer, pH 7.7. The hydrolysis of ASCh was determined by monitoring the formation of the yellow 5-thio-2-nitrobenzoate anion resulting from reaction of DTNB with thiocholines (SCh).
The IC50 values were determined graphically from inhibition curves (inhibitor concentration and absorbance) using the graph pad prism.
Molecule `O=Cc1coc2c(ccc3oc(C4=CCCCC4)cc32)c1=O` [Compound 2i, 8-(Cyclohex-1-en-1-yl)-4-oxo-4H-furo[2,3-h]chromene-3-carbaldehyde] came in with a half-maximal inhibitory concentration (IC50) of 31.6 ± 0.02 µM.

`O=Cc1coc2c(ccc3oc(-c4ccc(Cl)cc4)cc32)c1=O` [Compound 2e, 8-(4-Chlorophenyl)-4-oxo-4H-furo[2,3-h]chromene-3-carbaldehyde] yielded a half-inhibitory concentration (IC50) of 32.6 ± 0.02 µM.

As for `Cc1ccc(-c2cc3c(ccc4c(=O)c(C=O)coc43)o2)cc1` [Compound 2h, 8-(4-Methyphenyl)-4-oxo-4H-furo[2,3-h]chromene-3-carbaldehyde], the 50% inhibitory concentration (IC50) was found to be 25.9 ± 0.03 µM.

With `Cc1ccc(-c2cc3c(ccc4c(=O)c(C=NNc5ccc(C(F)(F)F)cc5)coc43)o2)cc1` [Compound 3h], half-maximal inhibition (IC50) was put at 14.2 µM.

Take `COc1ccc(-c2cc3c(ccc4c(=O)c(C=O)coc43)o2)cc1` [Compound 2f, 8-(4-Methoxyphenyl)-4-oxo-4H-furo[2,3-h]chromene-3-carbaldehyde]: the 50% inhibitory concentration (IC50) stood at 21.8 ± 0.02 µM.

In another assay the target is AChE (Homo sapiens, UniProt P22303). Kind of assay: biochemical. As to conditions: SI = IC50 (AChE)/IC50 (BChE).
Chain of AChE (P22303 32-614): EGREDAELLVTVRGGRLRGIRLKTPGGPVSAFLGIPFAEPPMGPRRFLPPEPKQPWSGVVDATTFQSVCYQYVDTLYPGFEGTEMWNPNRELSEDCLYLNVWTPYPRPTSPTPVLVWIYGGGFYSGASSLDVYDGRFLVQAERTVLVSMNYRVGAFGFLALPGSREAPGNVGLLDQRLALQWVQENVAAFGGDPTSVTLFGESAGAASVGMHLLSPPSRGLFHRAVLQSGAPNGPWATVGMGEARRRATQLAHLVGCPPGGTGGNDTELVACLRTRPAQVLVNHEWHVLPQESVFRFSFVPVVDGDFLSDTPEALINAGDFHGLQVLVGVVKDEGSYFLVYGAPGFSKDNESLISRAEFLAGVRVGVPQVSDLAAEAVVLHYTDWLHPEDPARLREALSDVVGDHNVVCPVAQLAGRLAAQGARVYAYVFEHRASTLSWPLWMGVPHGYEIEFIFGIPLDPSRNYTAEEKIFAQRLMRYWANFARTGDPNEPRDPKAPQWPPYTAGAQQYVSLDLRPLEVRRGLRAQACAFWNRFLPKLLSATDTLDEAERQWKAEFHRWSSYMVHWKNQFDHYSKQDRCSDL
For `O=Cc1coc2c(ccc3oc(C4=CCCCC4)cc32)c1=O` [Compound 2i, 8-(Cyclohex-1-en-1-yl)-4-oxo-4H-furo[2,3-h]chromene-3-carbaldehyde], the “Selectivity index (SI)” value stood at 0.5.

As for `O=Cc1coc2c(ccc3oc(-c4ccc(Cl)cc4)cc32)c1=O` [Compound 2e, 8-(4-Chlorophenyl)-4-oxo-4H-furo[2,3-h]chromene-3-carbaldehyde], the “Selectivity index (SI)” value was 0.8.

For the molecule `Cc1ccc(-c2cc3c(ccc4c(=O)c(C=O)coc43)o2)cc1` [Compound 2h, 8-(4-Methyphenyl)-4-oxo-4H-furo[2,3-h]chromene-3-carbaldehyde], the “Selectivity index (SI)” value turned out to be 0.8.

For `Cc1ccc(-c2cc3c(ccc4c(=O)c(C=NNc5ccc(C(F)(F)F)cc5)coc43)o2)cc1` [Compound 3h], the “Selectivity index (SI)” value came out at 0.6.

For the molecule `COc1ccc(-c2cc3c(ccc4c(=O)c(C=O)coc43)o2)cc1` [Compound 2f, 8-(4-Methoxyphenyl)-4-oxo-4H-furo[2,3-h]chromene-3-carbaldehyde], the “Selectivity index (SI)” value came out at 1.6.

The assay is the same for the next values; noted with them: recombinant human AChE, Ellman's method, triplicate.
Regarding `O=Cc1coc2c(ccc3oc(C4=CCCCC4)cc32)c1=O` [Compound 2i, 8-(Cyclohex-1-en-1-yl)-4-oxo-4H-furo[2,3-h]chromene-3-carbaldehyde], the IC50 was found to be 15.3 ± 0.03 µM.

Turning to `O=Cc1coc2c(ccc3oc(-c4ccc(Cl)cc4)cc32)c1=O` [Compound 2e, 8-(4-Chlorophenyl)-4-oxo-4H-furo[2,3-h]chromene-3-carbaldehyde], the IC50 stood at 27.1 ± 0.04 µM.

Take `Cc1ccc(-c2cc3c(ccc4c(=O)c(C=O)coc43)o2)cc1` [Compound 2h, 8-(4-Methyphenyl)-4-oxo-4H-furo[2,3-h]chromene-3-carbaldehyde]: the 50% inhibitory concentration (IC50) worked out at 20.9 ± 0.01 µM.

Take `Cc1ccc(-c2cc3c(ccc4c(=O)c(C=NNc5ccc(C(F)(F)F)cc5)coc43)o2)cc1` [Compound 3h]: the IC50 worked out at 9.1 ± 0.02 µM.

As to `COc1ccc(-c2cc3c(ccc4c(=O)c(C=O)coc43)o2)cc1` [Compound 2f, 8-(4-Methoxyphenyl)-4-oxo-4H-furo[2,3-h]chromene-3-carbaldehyde], the 50% inhibitory concentration (IC50) worked out at 34.2 ± 0.02 µM.
